According to article PMC6029141, “Population Pharmacokinetics of Vancomycin in Chinese ICU Neonates: Initial Dosage Recommendations” (Frontiers in Pharmacology, 2018):
Like-named read-outs stand apart in the source and are kept apart here.

Experiments:
[1] = Population pharmacokinetic modeling of vancomycin (NONMEM, FOCE-I, one-compartment, first-order elimination); details: for θ4, volume of distribution V / θ5, exponent of body weight on V / θ1, clearance CL: final model
Experimental: Chinese neonates who received vancomycin in the neonatal ICU at Shanghai Children's Hospital (Shanghai, China) between January 2013 and December 2016 were enrolled. Patients included in this study were neonates with PMA ≤ 48 weeks for preterm neonates and with postnatal age (PNA) ≤ 28 days for term neonates. All patients were treated with vancomycin for at least 3 days, and at least one vancomycin concentration was assayed. Patients with extracorporeal membrane oxygenation or continuous renal replacement therapy were excluded from the current study. The following information was retrospectively collected from electronic medical records: gestational age (GA), PMA, PNA, body weight (WT), dosing history and concentration of vancomycin, serum creatinine (Scr) levels, clinical laboratory tests of other renal and hepatic functions, and co-administered medications.
The dose of vancomycin (Vancocin, Lilly, S.A, Suzhou, China) was 10–15 mg/kg, which was administrated every 8 h (q8h) or every 12 h (q12h) with a 2-h infusion, in accordance with local protocols. Blood samples were collected 1 h after completion of drug infusion (peak concentration) or half an hour before the start of vancomycin administration (trough concentration) for each patient. Trough and peak concentrations were obtained after at least four repeated doses. Potential outlier data points (observations) were identified by employing conditional weighted residual (CWRES) results outside a range of ± 6 (Byon et al., [2013]).
Population pharmacokinetic modeling was performed using the NONMEM program (Version 7.4; Icon Inc, PA, USA) compiled with gFortran (Version 4.9.2; http://www.gfortran.org). R (Version 3.3.1; http://www.r-project.org) and the Xpose package (Version 4.5.3; http://xpose.sourceforge.net) were used for visual diagnosis. The first-order conditional estimation method with η–ε interaction (FOCE-I) was used throughout the model-building procedure (Wählby et al., [2001]).
The vancomycin concentration data were fitted by the one or two compartment with a first-order elimination model. NONMEM subroutines were specified as ADVAN1-TRANS2 or ADVAN3-TRANS4, respectively.
An exponential model (Equation 1) was used to account for inter-individual variability (IIV):
Residual unexplained variability was tested by an additive model (Equation 2), exponential model (Equation 3), or a combined additive and exponential model (Equation 4):
Four different models based on allometric scaling were tested using Equation (5): (5) Pi= TV(P)×(COV/COVmedian)^θ×MF
The robustness of the model was assessed using a nonparametric bootstrap (Ette, [1997]), with repetition of 2000 NONMEM runs of the final model. The bootstrap median parameter values and the percentile bootstrap 95% confidence intervals were compared with the respective values estimated from the final model.

[2] = cited from earlier work
Excerpt: The maximum a posteriori Bayesian estimation method has already been used to support vancomycin dosing decisions in adults (Deng et al., [2013]; Jacqz-Aigrain et al., [2015]) and children (Le et al., [2014]). To obtain accurate estimation with this method for individualized therapy, it is crucial that reliable population pharmacokinetic characteristics are known for the target patients. […] (H ...

[3] = Vancomycin trough and peak concentrations, fluorescence polarization immunoassay; assay type: in vivo, Chinese neonates; details: after at least four doses, 10–15 mg/kg q8h or q12h, FPIA
Experimental: Concentrations of vancomycin were determined using the fluorescence polarization immunoassay with an ARCHITECT i2000SR (Abbott Laboratories, Chicago, IL, USA). The limit of detection was 1 mg/L, and the calibration range of this assay was 3 to 50 mg/L. The intra-day and inter-day coefficients of variation (CVs) were all < 20%.

[4] = Model III, WT-dependent exponent model
[5] = Model IV, age-dependent exponent model

CN[C@H](CC(C)C)C(=O)N[C@H]1C(=O)N[C@@H](CC(N)=O)C(=O)N[C@H]2C(=O)N[C@H]3C(=O)N[C@H](C(=O)N[C@H](C(=O)O)c4cc(O)cc(O)c4-c4cc3ccc4O)[C@H](O)c3ccc(c(Cl)c3)Oc3cc2cc(c3O[C@@H]2O[C@H](CO)[C@@H](O)[C@H](O)[C@H]2O[C@H]2C[C@](C)(N)[C@H](O)[C@H](C)O2)Oc2ccc(cc2Cl)[C@H]1O [vancomycin]
k, exponent for body weight (RSE%) ([1]; Model I, simple exponent model): 1.57 (10.9%)
CLp typical value of apparent clearance (RSE%) ([1]; Model I, simple exponent model, MF = 1): 0.319 (5.1%) L/h
Hill (RSE%) ([1]; Model II, maturation model): 4.45 (105%)
TM50, age at which clearance maturation reaches 50% of that of adults (RSE%) ([1]; Model II, maturation model): 46.9 (102%)
CLp typical value of apparent clearance (RSE%) ([1]; Model II, maturation model, k fixed 0.75): 0.911 (235%) L/h
k50, body weight at which there is a 50 % decrease in the kmax (RSE%) ([1]; Model III): 12.7 (53.1%)
kmax, maximum decrease of the exponent (RSE%) ([1]; Model III): 1.08 (25%)
θ0, exponent at a theoretical WT of 0 kg (RSE%) ([1]; Model III): 1.57 (10.9%)
CLp typical value of apparent clearance (RSE%) [1, 4]: 0.319 (5.1%) L/h
Hill (RSE%) [1, 4]: 23.6 (17.2%)
k50, age at which there is a 50 % decrease in the kmax (RSE%) ([1]; Model IV): 62.3 (22%)
kmax, maximum decrease of the exponent (RSE%) ([1]; Model IV): 1.08 (25%)
θ0, exponent at age at birth (RSE%) ([1]; Model IV): 1.57 (10.9%)
CLp typical value of apparent clearance (RSE%) [1, 5]: 0.319 (5.1%) L/h
Hill (RSE%) [1, 5]: 60.7 (23.4%)
θ4, volume of distribution V ([1]; NONMEM estimate, WT 2.9 kg): 2.63 L
θ5, exponent of body weight on V ([1]; NONMEM estimate, [WT(kg)/2.9]^θ5): 1.05
θ1, clearance CL ([1]; NONMEM estimate, typical neonate WT 2.9 kg, Scr 23.3 μmol/L): 0.309 L/h
θ1, clearance CL ([1]; bootstrap median, 2000 runs): 0.308 L/h
θ4, volume of distribution V ([1]; bootstrap median, 2000 runs): 2.62 L
θ5, exponent of body weight on V ([1]; bootstrap median, 2000 runs): 1.06
clearance (CL) ([2]; adult Caucasian patients, first of two values, ref Guay et al., [1993], Sánchez et al., [2010]): 4.03 ± 1.7 L/h
clearance (CL) ([2]; adult Caucasian patients, second of two values, ref Guay et al., [1993], Sánchez et al., [2010]): 5.83 ± 2.39 L/h
clearance (CL) ([2]; adult Chinese patients, second of two values, ref He et al., [2014], Lin et al., [2015]): 6.06 ± 2.46 L/h
average clearance across all three populations ([2]; neonatal patient with weight of 3 kg and PMA of 40 weeks, Caucasian, Japanese, Malaysian neonates, ref Seay et al., [1994] to Lo et al., [2010] (b5)): 0.08 to 0.50 L/h
Peak concentration, median (range) ([3]; 1 h after completion of 2-h infusion, 90 peak samples): 20.3 (4.09–51.9) mg/L
Peak concentration ([3]; column 'Modeling group' (value ± spread), 1 h after completion of 2-h infusion, 90 peak samples): 22.3 ± 11.0 mg/L
Trough concentration ([3]; column 'Modeling group' (value ± spread), half an hour before administration, 2-h infusion, 75 trough samples, 80 neonates): 11.2 ± 7.92 mg/L
Trough concentration, median (range) ([3]; half an hour before administration, 2-h infusion, 75 trough samples): 9.15 (3.14–42.9) mg/L
